Assay results taken from patent US20260217698A1 (BEYANG THERAPEUTICS CO., LTD., priority 2022, published 2026).

Legend:
EGFR = molecular target: T1, EGFR (Homo sapiens, UniProt P00533); assay: Kinase inhibition, Mobility Shift Assay/IMAP, EGFR; assay type: biochemical
T1 construct: purchased Carna 08-115
Description: (§1) This assay directly monitored the ability of compounds to inhibit kinase phosphorylation by measuring non-phosphorylated and phosphorylated substrates in kinase reactions by using Mobility Shift Assays/IMAP™ analysis.
(§2) Read the conversion ratio data on CaliperEZ Reader II. Convert conversion rates into inhibition ratio data.
(§3) “Min” indicates the readout of the control well without the addition of enzymes; and “Max” indicates the readout of the control well with the addition of DMSO Fit IC50 values with XL Fit excel add-in version […].
(§4) X indicates the log value of compound concentration, and Y indicates the inhibition ratio (% inhibition).

VEGFR3 = molecular target: T2, VEGFR3 (Homo sapiens, UniProt P35916); assay: Kinase inhibition, Mobility Shift Assay/IMAP, VEGFR3; assay type: biochemical
T2 construct: purchased Invitrogen PV4129
T2 sequence (P35916 25-1363): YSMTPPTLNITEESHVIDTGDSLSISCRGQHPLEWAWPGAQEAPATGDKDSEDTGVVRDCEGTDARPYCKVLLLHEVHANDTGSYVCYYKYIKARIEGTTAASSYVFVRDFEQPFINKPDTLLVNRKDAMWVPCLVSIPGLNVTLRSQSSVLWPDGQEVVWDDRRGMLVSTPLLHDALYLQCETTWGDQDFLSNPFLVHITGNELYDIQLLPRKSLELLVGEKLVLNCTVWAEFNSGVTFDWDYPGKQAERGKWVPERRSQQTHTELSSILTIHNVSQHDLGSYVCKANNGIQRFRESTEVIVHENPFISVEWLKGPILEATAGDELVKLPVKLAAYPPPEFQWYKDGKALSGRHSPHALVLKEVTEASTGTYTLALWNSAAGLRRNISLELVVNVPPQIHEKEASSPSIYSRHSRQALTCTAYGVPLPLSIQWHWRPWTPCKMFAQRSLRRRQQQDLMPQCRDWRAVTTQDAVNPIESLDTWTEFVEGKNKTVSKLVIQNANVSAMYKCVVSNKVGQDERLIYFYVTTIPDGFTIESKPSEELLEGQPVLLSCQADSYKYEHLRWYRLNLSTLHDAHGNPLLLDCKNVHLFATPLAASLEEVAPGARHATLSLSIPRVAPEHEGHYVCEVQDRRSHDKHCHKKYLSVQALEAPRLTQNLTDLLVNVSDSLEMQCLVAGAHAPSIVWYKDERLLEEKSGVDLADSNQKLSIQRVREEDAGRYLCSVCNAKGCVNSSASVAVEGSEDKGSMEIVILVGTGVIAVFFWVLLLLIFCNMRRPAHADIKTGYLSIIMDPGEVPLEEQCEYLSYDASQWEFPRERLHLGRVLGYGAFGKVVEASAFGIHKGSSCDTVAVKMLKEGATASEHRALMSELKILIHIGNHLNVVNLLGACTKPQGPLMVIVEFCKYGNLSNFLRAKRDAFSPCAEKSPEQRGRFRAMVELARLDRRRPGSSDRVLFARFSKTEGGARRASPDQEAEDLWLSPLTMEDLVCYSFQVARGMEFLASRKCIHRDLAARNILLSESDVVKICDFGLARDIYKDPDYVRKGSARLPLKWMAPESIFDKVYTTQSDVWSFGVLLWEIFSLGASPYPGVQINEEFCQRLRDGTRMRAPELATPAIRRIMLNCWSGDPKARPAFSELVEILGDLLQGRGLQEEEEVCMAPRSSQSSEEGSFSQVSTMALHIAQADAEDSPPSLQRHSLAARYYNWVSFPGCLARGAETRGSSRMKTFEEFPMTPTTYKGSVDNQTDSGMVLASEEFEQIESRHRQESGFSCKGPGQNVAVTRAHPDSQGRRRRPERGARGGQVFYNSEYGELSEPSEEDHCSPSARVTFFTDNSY
Description: as §1, §2, §3, §4

melanin = assay: Binding capacity of compounds to melanin; assay type: in vitro ADME, cuttlefish (Sepia officinalis); settings: cuttlefish (Sepia officinalis), melanin suspension (1 mg/mL); 1 mg/mL melanin in PBS pH 7.4, 2 μM compound, 2 h at 37° C.; read-out: Fu % (percentage of free drug)
Description: Pigmented eye tissues contain melanin in intracellular melanosomes. Drugs bind to melanin to varying degrees, ranging from non-binding to extensive binding. Therefore, melanin binding is an important feature that affects drug delivery and biodistribution in the eye. The binding capacity of the compound to the melanin must be considered in the development of ophthalmic drugs.
Melanin was derived from the melanin of cuttlefish (Sepia officinalis) and was commercially available from Sigma Aldrich (St Louis, MO).
First, prepare 1 mg/mL melanin suspension with PBS (pH 7.4). As a washing step for the matrix, centrifuge the suspended particles for 5 min at 3000 rpm. Resuspend the resulting particles in a fresh PBS buffer, heat to 37° C. over continuous shaking and incubate it for 1 h. Accurately pipette 2 μL of the test stock solution (0.1 mM) into 98 μL of melanin suspension (1 mg/mL) to achieve a final incubation concentration of 2 μM. Similarly, accurately pipette 2 μL of the stock solution (0.1 mM) to 98 μL of PBS buffer (containing 0.1% BSA) as a blank control sample. Incubate the samples in a shaker (80-90 rpm) for 2 h at 37° C. Then, centrifuge the samples at room temperature. Pipette 50 μL of the supernatant and add 50 μL of precipitant (containing an internal standard). After protein precipitation of all the above samples, centrifuge the samples to collect the supernatants, dilute the supernatants with water (if necessary) and inject them for analysis. At the same time, measure the positive controls, including the high-binding compounds Sunitinib and chloroquine and the low-binding compound celecoxib. Establish an LC-MS/MS method for determining compound concentrations, and calibrate the peak area ratio of analyte/internal standard (Analyte/AIS) in the measured sample by the dilution factor to take it as an alternative concentration for the sample for data processing. The binding rate (Fb) of a compound in melanin was calculated as: […]
Ctest was the concentration of the compound in the melanin-incubated sample or the peak area ratio of the test compound to the internal standard. Ccontrol was the concentration of the compound in the blank control sample or the peak area ratio of the test compound to the internal standard. […]

VEGFR1 = molecular target: T3, VEGFR1 (Homo sapiens, UniProt P17948); assay: Kinase inhibition, Mobility Shift Assay/IMAP, VEGFR1; assay type: biochemical
T3 construct: purchased Invitrogen PR6731B
T3 sequence (P17948 27-1338): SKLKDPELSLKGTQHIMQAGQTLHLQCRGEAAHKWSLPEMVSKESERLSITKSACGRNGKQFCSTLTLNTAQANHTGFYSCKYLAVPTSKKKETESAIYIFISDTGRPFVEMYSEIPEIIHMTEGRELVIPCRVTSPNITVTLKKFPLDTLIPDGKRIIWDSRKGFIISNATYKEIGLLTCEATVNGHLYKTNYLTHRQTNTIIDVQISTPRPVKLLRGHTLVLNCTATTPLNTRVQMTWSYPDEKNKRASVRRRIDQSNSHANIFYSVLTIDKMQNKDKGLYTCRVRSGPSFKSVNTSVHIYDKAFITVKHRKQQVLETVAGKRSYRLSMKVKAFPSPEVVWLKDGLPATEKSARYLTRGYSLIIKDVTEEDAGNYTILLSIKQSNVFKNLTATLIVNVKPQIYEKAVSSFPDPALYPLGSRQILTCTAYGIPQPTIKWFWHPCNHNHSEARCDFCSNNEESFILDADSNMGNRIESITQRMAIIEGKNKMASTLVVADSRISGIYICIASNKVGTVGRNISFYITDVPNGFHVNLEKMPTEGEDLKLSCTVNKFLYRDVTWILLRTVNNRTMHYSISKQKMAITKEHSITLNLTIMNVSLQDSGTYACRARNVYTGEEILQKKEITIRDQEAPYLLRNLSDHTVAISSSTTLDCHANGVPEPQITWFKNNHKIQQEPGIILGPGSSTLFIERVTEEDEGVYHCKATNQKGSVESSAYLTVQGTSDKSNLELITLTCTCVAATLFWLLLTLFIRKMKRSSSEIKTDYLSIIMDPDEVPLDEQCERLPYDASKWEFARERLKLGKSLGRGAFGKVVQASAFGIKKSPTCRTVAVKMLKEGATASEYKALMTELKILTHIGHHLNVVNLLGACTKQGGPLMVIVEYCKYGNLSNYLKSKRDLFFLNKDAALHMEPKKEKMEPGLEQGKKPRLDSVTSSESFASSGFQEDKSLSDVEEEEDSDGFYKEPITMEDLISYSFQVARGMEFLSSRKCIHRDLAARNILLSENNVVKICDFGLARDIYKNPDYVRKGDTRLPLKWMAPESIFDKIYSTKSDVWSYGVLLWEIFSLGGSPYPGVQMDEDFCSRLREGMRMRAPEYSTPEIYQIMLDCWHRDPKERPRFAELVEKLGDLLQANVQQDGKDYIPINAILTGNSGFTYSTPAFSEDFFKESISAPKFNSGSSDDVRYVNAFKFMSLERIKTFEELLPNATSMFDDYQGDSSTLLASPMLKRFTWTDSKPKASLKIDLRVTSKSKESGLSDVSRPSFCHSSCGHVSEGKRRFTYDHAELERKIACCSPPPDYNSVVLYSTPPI
Description: as §1, §2, §3, §4

VEGFR2 = VEGFR2 (Homo sapiens, UniProt P35968); assay: Kinase inhibition, Mobility Shift Assay/IMAP, VEGFR2; assay type: biochemical; parameters: purchased Carna 08-191
Sequence of VEGFR2 (P35968 790-1356 limits assumed): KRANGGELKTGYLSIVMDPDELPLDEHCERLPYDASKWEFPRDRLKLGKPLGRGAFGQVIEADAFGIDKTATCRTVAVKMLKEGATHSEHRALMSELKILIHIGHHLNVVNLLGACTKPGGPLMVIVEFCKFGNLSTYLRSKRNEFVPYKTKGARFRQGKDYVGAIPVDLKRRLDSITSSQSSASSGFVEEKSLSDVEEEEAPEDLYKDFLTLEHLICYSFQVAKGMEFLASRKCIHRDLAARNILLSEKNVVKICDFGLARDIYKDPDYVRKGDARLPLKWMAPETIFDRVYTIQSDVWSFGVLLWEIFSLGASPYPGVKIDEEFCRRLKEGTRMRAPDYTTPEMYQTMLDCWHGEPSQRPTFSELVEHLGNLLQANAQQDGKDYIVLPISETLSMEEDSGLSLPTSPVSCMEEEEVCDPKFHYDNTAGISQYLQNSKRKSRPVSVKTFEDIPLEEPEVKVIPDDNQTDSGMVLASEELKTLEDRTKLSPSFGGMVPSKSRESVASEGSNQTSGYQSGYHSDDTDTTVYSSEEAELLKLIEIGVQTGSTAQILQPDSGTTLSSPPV
Description: as §1, §2, §3, §4

TIE2 = molecular target: T4, TIE2 (Homo sapiens, UniProt Q02763); assay: Kinase inhibition, Mobility Shift Assay/IMAP, TIE2; assay type: biochemical
T4 construct: purchased BPS 40270
T4 sequence (Q02763 23-1124): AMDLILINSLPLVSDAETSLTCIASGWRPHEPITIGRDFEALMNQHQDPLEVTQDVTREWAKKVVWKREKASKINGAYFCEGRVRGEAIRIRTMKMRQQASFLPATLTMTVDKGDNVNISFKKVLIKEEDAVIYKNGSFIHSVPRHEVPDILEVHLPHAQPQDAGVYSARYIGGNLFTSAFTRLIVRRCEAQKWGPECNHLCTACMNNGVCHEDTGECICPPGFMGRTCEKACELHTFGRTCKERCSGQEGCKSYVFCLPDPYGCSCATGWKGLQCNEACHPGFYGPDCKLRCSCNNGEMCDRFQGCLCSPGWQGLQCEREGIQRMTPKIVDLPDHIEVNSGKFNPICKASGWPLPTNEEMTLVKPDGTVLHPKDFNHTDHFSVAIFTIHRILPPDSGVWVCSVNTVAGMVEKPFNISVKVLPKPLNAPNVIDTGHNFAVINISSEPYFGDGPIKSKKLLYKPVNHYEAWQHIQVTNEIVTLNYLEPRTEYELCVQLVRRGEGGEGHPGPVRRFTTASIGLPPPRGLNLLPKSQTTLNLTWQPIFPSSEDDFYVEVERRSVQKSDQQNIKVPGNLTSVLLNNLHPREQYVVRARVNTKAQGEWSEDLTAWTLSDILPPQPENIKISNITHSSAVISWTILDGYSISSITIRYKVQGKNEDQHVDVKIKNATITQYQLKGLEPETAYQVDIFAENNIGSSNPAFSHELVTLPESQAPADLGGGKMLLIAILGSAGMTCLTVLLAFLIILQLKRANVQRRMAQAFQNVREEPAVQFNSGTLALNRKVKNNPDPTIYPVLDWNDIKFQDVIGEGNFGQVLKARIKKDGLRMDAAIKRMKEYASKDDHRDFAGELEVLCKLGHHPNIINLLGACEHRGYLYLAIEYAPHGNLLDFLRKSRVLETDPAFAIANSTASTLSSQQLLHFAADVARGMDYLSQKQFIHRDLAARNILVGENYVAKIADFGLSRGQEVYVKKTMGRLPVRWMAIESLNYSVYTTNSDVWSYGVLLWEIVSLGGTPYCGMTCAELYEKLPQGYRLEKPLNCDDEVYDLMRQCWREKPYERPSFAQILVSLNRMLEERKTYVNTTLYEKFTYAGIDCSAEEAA
Description: as §1, §2, §3, §4

T1 sequence (P00533 669-1210 limits assumed): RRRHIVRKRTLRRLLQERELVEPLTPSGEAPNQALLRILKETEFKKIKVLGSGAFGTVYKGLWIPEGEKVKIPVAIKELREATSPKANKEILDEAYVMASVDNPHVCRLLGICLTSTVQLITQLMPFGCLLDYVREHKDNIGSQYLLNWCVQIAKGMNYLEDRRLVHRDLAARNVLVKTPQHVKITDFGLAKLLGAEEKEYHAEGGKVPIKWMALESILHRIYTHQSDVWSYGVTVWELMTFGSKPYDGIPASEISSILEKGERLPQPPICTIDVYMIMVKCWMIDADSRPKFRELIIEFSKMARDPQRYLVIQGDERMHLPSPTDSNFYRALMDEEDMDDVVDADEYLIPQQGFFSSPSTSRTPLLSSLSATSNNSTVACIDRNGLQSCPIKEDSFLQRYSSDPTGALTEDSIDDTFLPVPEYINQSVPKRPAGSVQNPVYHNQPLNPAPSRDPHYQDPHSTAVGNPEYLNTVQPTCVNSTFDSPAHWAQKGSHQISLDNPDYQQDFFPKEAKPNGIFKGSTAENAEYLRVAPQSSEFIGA

CN1CCC(CCNC(=O)Nc2snc(OCc3ccc4c(c3F)OCC4)c2C(N)=O)CC1 [Compound T075, 3-((7-fluoro-2,3-dihydrobenzofuran-6-yl)methoxy)-5-(3-(2-(1-methylpiperidin-4-yl)ethyl)ureido)isothiazole-4-carboxamide]
IC50 (EGFR): 24300 nM
IC50 (VEGFR3): 48.8 nM
fraction unbound at 2 h, 2 μM (melanin): 0.0391
IC50 (VEGFR1): 44 nM
IC50 (VEGFR2): 23 nM

COc1cc(COc2nsc(NC(=O)NCCCCN3CCC(F)(F)C3)c2C(N)=O)cc(OC)c1 [Compound T063, 5-(3-(4-(3,3-difluoropyrrolidin-1-yl)butyl)ureido)-3-((3,5-dimethoxybenzyl)oxy)isothiazole-4-carboxamide]
IC50 (EGFR): > 60000 nM
IC50 (VEGFR3): 39.1 nM
fraction unbound at 2 h, 2 μM (melanin): 0.0871
IC50 (TIE2): 1000 nM
IC50 (VEGFR2): 63 nM

NC(=O)c1c(OCc2cccc(C(=O)NC3CC3)c2)nsc1NC(=O)NCCN1CCCC1 [Compound T066, 3-((3-(cyclopropylcarbamoyl)benzyl)oxy)-5-(3-(2-(pyrrolidin-1-yl)ethyl)ureido)isothiazole-4-carboxamide]
IC50 (EGFR): > 60000 nM
IC50 (VEGFR1): 37.9 nM
IC50 (TIE2): 10000 nM
IC50 (VEGFR2): 77.8 nM

COc1ccc(F)c(COc2nsc(NC(=O)NCCCCN3CCC(F)(F)CC3)c2C(N)=O)c1F [Compound T130, 3-[(2,6-difluoro-3-methoxy-phenyl)methoxy]-5-[4-(4,4-difluoro-1-piperidyl)butylcarbamoylamino]isothiazole-4-carboxamide]
IC50 (EGFR): 13700 nM
fraction unbound at 2 h, 2 μM (melanin): 0.0709
IC50 (TIE2): 471 nM
IC50 (VEGFR2): 41 nM

COc1ccc(F)c(COc2nsc(NC(=O)NCCCCN3CCC(F)CC3)c2C(N)=O)c1F [Compound T125, 3-[(2,6-difluoro-3-methoxy-phenyl)methoxy]-5-[4-(4-fluoro-1-piperidyl)butylcarbamoylamino]isothiazole-4-carboxamide]
IC50 (EGFR): 9710 nM
fraction unbound at 2 h, 2 μM (melanin): 0.0402
IC50 (TIE2): 161 nM
IC50 (VEGFR2): 13.5 nM

COc1cc(OC)c(F)c(COc2nsc(NC(=O)NCCCCN3CC[C@@H](O)C3)c2C(N)=O)c1F [Compound T135, 3-[(2,6-difluoro-3,5-dimethoxy-phenyl)methoxy]-5-[4-[(3R)-3-hydroxypyrrolidin-1-yl]butylcarbamoylamino]isothiazole-4-carboxamide]
IC50 (EGFR): > 60000 nM
fraction unbound at 2 h, 2 μM (melanin): 0.02
IC50 (TIE2): 97 nM
IC50 (VEGFR2): 1.9 nM

CN(C)CCCn1ncc(Nc2snc(OCc3c(F)cc(Br)cc3F)c2C(N)=O)n1 [Compound T052, 3-((4-bromo-2,6-difluorobenzyl)oxy)-5-((2-(3-(dimethylamino)propyl)-2H-1,2,3-triazol-4-yl)amino)isothiazole-4-carboxamide]
IC50 (VEGFR3): 18.7 nM
IC50 (VEGFR1): 42.1 nM
IC50 (VEGFR2): 8.17 nM

COc1ccc(F)c(COc2nsc(NC(=O)NCCCCN3CCCC3)c2C(N)=O)c1 [Compound T092, 3-[(2-fluoro-5-methoxy-phenyl)methoxy]-5-(4-pyrrolidin-1-ylbutylcarbamoylamino)isothiazole-4-carboxamide]
fraction unbound at 2 h, 2 μM (melanin): 0.031
IC50 (TIE2): 596 nM
IC50 (VEGFR2): 17.2 nM

COc1ccc(F)c(COc2nsc(NC(=O)NCCCN3CCN(C)CC3)c2C(N)=O)c1F [Compound T107, 3-[(2,6-difluoro-3-methoxy-phenyl)methoxy]-5-[3-(4-methylpiperazin-1-yl)propylcarbamoylamino]isothiazole-4-carboxamide]
IC50 (EGFR): 9140 nM
fraction unbound at 2 h, 2 μM (melanin): 0.0403
IC50 (TIE2): 124 nM
IC50 (VEGFR2): 8.57 nM

COc1cc(COc2nsc(NC(=O)NCCCCN3CCCC3)c2C(N)=O)c(F)c(OC)c1 [Compound T094, 3-[(2-fluoro-3,5-dimethoxy-phenyl)methoxy]-5-(4-pyrrolidin-1-ylbutylcarbamoylamino)isothiazole-4-carboxamide]
IC50 (EGFR): > 60000 nM
fraction unbound at 2 h, 2 μM (melanin): 0.0481
IC50 (TIE2): 413 nM
IC50 (VEGFR2): 9.1 nM

COc1ccc(F)c(COc2nsc(NC(=O)NCCCCN3CCOCC3)c2C(N)=O)c1F [Compound T132, 3-[(2,6-difluoro-3-methoxy-phenyl)methoxy]-5-(4-morpholinobutylcarbamoylamino)isothiazole-4-carboxamide]
IC50 (EGFR): 19200 nM
fraction unbound at 2 h, 2 μM (melanin): 0.0363
IC50 (TIE2): 163 nM
IC50 (VEGFR2): 14.7 nM

NC(=O)c1c(OCc2cc(C(=O)NC3CC3)ccc2F)nsc1NC(=O)NCCC1CCN(CCF)CC1 [Compound T108, 3-[[5-(cyclopropylcarbamoyl)-2-fluoro-phenyl]methoxy]-5-[2-[1-(2-fluoroethyl)-4-piperidyl]ethylcarbamoylamino]isothiazole-4-carboxamide]
fraction unbound at 2 h, 2 μM (melanin): 0.0271
IC50 (TIE2): 621 nM
IC50 (VEGFR2): 0.72 nM

NC(=O)c1c(OCc2c(F)cc(Br)cc2F)nsc1Nc1cnn(CCN2CCNCC2)c1 [Compound T050, 3-((4-bromo-2,6-difluorobenzyl)oxy)-5-((1-(2-(piperazin-1-yl)ethyl)-1H-pyrazol-4-yl)amino)isothiazole-4-carboxamide]
IC50 (VEGFR3): 16.1 nM
IC50 (VEGFR1): 6.08 nM
IC50 (VEGFR2): 3.68 nM

CC(C)(C)[Si](C)(C)OCCCNC(=O)Nc1snc(OCc2cc(C(=O)NC3CC3)ccc2F)c1C(N)=O [Compound T169, 5-[3-[tert-butyl(dimethyl)silyl]oxypropylcarbamoylamino]-3-[[5-(cyclopropylcarbamoyl)-2-fluoro-phenyl]methoxy]isothiazole-4-carboxamide]
IC50 (EGFR): > 60000 nM
IC50 (TIE2): > 60000 nM
IC50 (VEGFR2): 16.4 nM

COc1ccc(F)c(COc2nsc(NC(=O)NCCCN3CC[C@H](F)C3)c2C(N)=O)c1F [Compound T120, 3-[(2,6-difluoro-3-methoxy-phenyl)methoxy]-5-[3-[(3S)-3-fluoropyrrolidin-1-yl]propylcarbamoylamino]isothiazole-4-carboxamide]
IC50 (EGFR): 40700 nM
fraction unbound at 2 h, 2 μM (melanin): 0.0173
IC50 (TIE2): 397 nM
IC50 (VEGFR2): 47 nM

CCNC(=O)c1cccc(COc2nsc(NC(=O)NCCCCN3CCCC3)c2C(N)=O)c1 [Compound T058, 3-((3-(ethylcarbamoyl)benzyl)oxy)-5-(3-(4-(pyrrolidin-1-yl)butyl)ureido)isothiazole-4-carboxamide]
IC50 (EGFR): > 60000 nM
fraction unbound at 2 h, 2 μM (melanin): 0.0225
IC50 (VEGFR1): 30 nM
IC50 (VEGFR2): 20.9 nM

NC(=O)c1c(OCc2cccc(-n3cccn3)c2)nsc1NC(=O)NCCCCN1CCCC1 [Compound T068, 3-((3-(1H-pyrazol-1-yl)benzyl)oxy)-5-(3-(4-(pyrrolidin-1-yl)butyl)ureido)isothiazole-4-carboxamide]
IC50 (EGFR): 4410 nM
IC50 (TIE2): 1610 nM
IC50 (VEGFR2): 171 nM

CN1CC[C@@H](CCNC(=O)Nc2snc(OCc3cc4c(cc3F)CCO4)c2C(N)=O)C1 [Compound T102, 3-[(5-fluoro-2,3-dihydrobenzofuran-6-yl)methoxy]-5-[2-[(3R)-1-methylpyrrolidin-3-yl]ethylcarbamoylamino]isothiazole-4-carboxamide]
IC50 (EGFR): 9890 nM
fraction unbound at 2 h, 2 μM (melanin): 0.0235
IC50 (TIE2): 142 nM
IC50 (VEGFR2): 5.5 nM

NC(=O)c1c(OCc2cc(C(=O)NC3CC3)ccc2F)nsc1NC(=O)NCCCN1CCN(C2CC2)CC1 [Compound T158, 3-[[5-(cyclopropylcarbamoyl)-2-fluoro-phenyl]methoxy]-5-[3-(4-cyclopropylpiperazin-1-yl)propylcarbamoylamino]isothiazole-4-carboxamide]
IC50 (EGFR): 9840 nM
IC50 (TIE2): 5380 nM
IC50 (VEGFR2): 1.05 nM

COc1ccc(COc2nsc(NC(=O)NCCCCN3CCCC3)c2C(N)=O)cn1 [Compound T033]
IC50 (EGFR): 54900 nM
IC50 (TIE2): 1460 nM
IC50 (VEGFR2): 51.9 nM
